Measured values: patent US5449662A, “Atrial natriuretic peptide clearance inhibitors which resist degradation” (Scios Nova Inc., priority 1992, dated 1995)
Numbered stars: 1 amine (or outer) side, 2 acyl side, 3 side chain; on linkers, the order of the positions; unused ones are H or OH. Square brackets hold non-standard residues; d marks the D form. Peptide text beside a SMILES is read from it. * marks the point of attachment. X4 = O=C(NO)C(Cc1ccccc1)N(CC(=O)[*:2])[*:1]; γGlu = O=C(O)[C@H](CCC(=O)[*:2])N[*:1]; X2 = O=C(Cc1ccc(N[*:1])cc1)[*:2]; X3 = O=C(O)C(Cc1ccccc1)NCCC(=O)*; X1 = O=C(C(CS)Cc1ccccc1)*

How the values were obtained:
[1] = biological target: T1, ANP clearance receptor on bovine aortic smooth muscle (BASM) cells (Bos taurus, UniProt P10730); assay: BASM receptor binding assay (competition with I125 labeled rANP(102-126)); conditions: read-out: Ki(app)
T1 construct: endogenous in cells; host or cells: bovine aortic smooth muscle (BASM) cells
T1 sequence (P10730 42-537): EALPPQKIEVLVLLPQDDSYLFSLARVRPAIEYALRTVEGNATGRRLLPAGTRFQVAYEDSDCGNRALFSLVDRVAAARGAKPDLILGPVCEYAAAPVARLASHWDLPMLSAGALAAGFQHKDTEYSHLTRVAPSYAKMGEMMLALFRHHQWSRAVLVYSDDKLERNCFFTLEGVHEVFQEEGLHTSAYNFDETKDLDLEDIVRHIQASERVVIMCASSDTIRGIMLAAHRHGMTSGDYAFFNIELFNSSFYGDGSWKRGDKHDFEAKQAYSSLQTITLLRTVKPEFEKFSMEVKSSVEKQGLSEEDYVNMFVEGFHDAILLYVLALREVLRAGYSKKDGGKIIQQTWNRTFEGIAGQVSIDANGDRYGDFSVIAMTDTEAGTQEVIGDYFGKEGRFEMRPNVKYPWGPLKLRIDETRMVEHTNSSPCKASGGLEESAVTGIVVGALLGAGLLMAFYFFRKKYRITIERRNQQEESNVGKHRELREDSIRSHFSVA
From the text: (§1) The assay systems used are adapted from those of Schenk, D. B., et al, Biochem Biophys Res Commun (1985) 127:433-442 and Scarborough, R. M., J Biol Chem (1986) 261:12960-12964. These assays measure clearance receptor binding affinity through competition with ANP using the receptors on bovine aortic smooth muscle (BASM) or bovine aortic endothelial (BAE) cells. Also employed is the receptor binding affinity assay for the clearance receptor in isolated perfused rat kidney as described by Maack, T., et al, Science (1987) 238:675-679.

Endopeptidase 24.11 = biological target: T2, Endopeptidase 24.11 (Rattus norvegicus, UniProt P07861); assay: Inhibition of endopeptidase 24.11 (cleavage of rANP(99-126), HPLC); format: biochemical; conditions: for inhibition at 0.02 µM: 20 nM; for inhibition at 0.02 µM / inhibition at 0.1 µM / inhibition at 1 µM / inhibition at 10 µM: read-out: % Inhibition of Metabolite Formation; for inhibition at 0.1 µM: 100 nM
T2 construct: rat urine was collected and desalted on Sephadex G-25; from tissue; host or cells: rat urine, desalted on Sephadex G-25
T2 sequence (P07861 1-750): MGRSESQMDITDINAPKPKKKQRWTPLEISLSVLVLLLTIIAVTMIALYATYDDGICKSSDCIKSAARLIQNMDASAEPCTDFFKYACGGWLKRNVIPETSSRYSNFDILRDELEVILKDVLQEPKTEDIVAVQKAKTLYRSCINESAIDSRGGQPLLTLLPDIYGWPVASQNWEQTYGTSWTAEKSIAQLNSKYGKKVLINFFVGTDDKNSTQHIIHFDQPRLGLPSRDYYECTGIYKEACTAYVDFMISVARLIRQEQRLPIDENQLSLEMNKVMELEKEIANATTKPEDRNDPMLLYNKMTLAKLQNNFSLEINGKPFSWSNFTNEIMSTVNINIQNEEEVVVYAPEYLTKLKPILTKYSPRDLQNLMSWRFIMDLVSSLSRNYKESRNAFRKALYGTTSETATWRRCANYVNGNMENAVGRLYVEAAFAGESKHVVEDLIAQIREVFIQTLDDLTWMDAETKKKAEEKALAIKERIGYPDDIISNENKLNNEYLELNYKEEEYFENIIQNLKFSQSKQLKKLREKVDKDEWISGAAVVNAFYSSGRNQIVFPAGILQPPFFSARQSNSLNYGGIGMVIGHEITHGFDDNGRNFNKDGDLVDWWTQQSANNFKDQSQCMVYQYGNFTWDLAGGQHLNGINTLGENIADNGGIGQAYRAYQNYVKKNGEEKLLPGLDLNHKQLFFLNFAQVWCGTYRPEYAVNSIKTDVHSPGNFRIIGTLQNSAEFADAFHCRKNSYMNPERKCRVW
Method: Endopeptidase 24.11 inactivates ANP by cleavage at the Cys^105 -Phe^106 amide bond. The ability of the compounds of the invention to inhibit this degradation was assayed by a modification of the procedure of Ura, N., et al, Kidney Int (1987) 32:507-513 by substituting rANP(99-126) for bradykinin as a substrate.
Briefly, rat urine was collected and desalted on Sephadex G-25 as described by Ura (supra) and 4 ul of sample in 100 ul 0.1M Tris buffer, pH 7.2 containing aminopeptidase inhibitor bestatin (10 ug/ml), potato tuber carboxy peptidase inhibitor (10 ug/ml) and aprotinin (5,000 kalikrein inhibitory unit/ml) were incubated for 15 min at 37° C. The assay was then initiated by addition of 2-10 ug rANP(99-126) to a final volume of 0.5 ml and incubated at 10-20 min at 37° C. Termination of the reaction was accomplished by boiling, spinning and freezing.
Compounds to be tested for their ability to inhibit the endopeptidase were added to the preincubation mixture 15 min before addition of substrate.
The frozen samples, incubated with or without inhibitor, were thawed and analyzed by HPLC to determine the concentration of starting rANP(99-126) and its degradation product. HPLC analysis was conducted on Vydac C18 reverse phase HPLC column (4.6 mm ID×12.5 cm; 5 uM, 300A). A linear gradient of 15-35% acetonitrile containing 0.1% TFA was run at 1.0 ml/min on a Perkin-Elmer series 4 HPLC system. The effluent was monitored at 220 nm and the peptide peak heights measured.
The results were computed as the percent of the Cys^105 -Phe^106 cleavage metabolite peak in the test sample as compared to the peak height for this metabolite in the control.

[2] = biological target: T3, clearance receptor in isolated perfused rat kidney (Rattus norvegicus, UniProt P41740); assay: Rat kidney receptor binding assay (isolated perfused rat kidney); conditions: labeled compound 4 × 10^-12 M + competitor 1 × 10^-6 M; n = 2
T3 construct: the clearance receptor in isolated perfused rat kidney; from tissue; host or cells: isolated perfused rat kidney
T3 sequence (P41740 41-535): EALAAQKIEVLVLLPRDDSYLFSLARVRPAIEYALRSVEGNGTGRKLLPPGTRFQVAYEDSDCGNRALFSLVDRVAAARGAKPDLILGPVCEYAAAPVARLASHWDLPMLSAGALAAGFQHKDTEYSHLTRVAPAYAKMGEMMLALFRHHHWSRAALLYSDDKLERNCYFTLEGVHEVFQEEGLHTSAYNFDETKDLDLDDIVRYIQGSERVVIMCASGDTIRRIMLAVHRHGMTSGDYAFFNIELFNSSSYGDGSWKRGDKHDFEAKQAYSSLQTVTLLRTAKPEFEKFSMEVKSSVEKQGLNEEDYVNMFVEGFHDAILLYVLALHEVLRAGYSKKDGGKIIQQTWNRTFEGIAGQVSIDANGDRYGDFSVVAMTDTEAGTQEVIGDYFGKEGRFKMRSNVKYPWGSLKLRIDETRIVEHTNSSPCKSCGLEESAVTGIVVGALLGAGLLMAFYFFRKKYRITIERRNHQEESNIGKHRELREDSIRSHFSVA
From the text: as §1
In the rat kidney receptor binding assay, the native 28-residue labeled ANP was used: I^125 labeled rANP(99-126), with the label linked to tyrosine at 126. The results of this assay are shown in Table 2 as the ratio of bound-to-free labeled rANP(99-126) in the presence and absence of competing compound.

Ki [1]	inhibition at 10 µM (Endopeptidase 24.11)	Compound	also measured
19.6 nM	92%	CC[C@H](C)[C@H](NC(=O)[C@H](CCCNC(=N)N)NC(=O)[C@H](CC(=O)O)NC(=O)[C@@H](NC(=O)[C@H](CCCNC(=N)N)NC(=O)CNC(=O)CNC(=O)C(CS)Cc1ccccc1)[C@@H](C)CC)C(N)=O (stereo partly drawn) [Analog 1, MBP-G-G-R-I-D-R-I-NH2] (X1-GGRIDRI-NH2)	inhibition at 0.02 µM (Endopeptidase 24.11): 0%; inhibition at 0.1 µM (Endopeptidase 24.11): 23%; inhibition at 1 µM (Endopeptidase 24.11): 45%; IC50 (Endopeptidase 24.11; approximate, from Table 3, read-out: ED50 of inhibition): ~1000 nM
207 nM		CC[C@H](C)[C@H](NC(=O)[C@H](CCCNC(=N)N)NC(=O)[C@H](CC(=O)O)NC(=O)[C@@H](NC(=O)[C@H](CCCNC(=N)N)NC(=O)CNC(=O)[C@H](CC(=O)O)NC(=O)C(CS)Cc1ccccc1)[C@@H](C)CC)C(N)=O (some centres unmarked) [Analog 12] (X1-DGRIDRI-NH2)	
115 nM		CC[C@H](C)[C@H](NC(=O)[C@H](CCCNC(=N)N)NC(=O)[C@H](CC(=O)O)NC(=O)[C@@H](NC(=O)[C@H](CCCNC(=N)N)NC(=O)CNC(=O)[C@@H](CC(=O)O)NC(=O)C(CS)Cc1ccccc1)[C@@H](C)CC)C(N)=O (some centres unmarked) [Analog 23] (X1-[dD]GRIDRI-NH2)	
202 nM		CC[C@H](C)[C@H](NC(=O)[C@H](CCCNC(=N)N)NC(=O)[C@H](CC(=O)O)NC(=O)[C@@H](NC(=O)[C@H](CCCNC(=N)N)NC(=O)CC[C@H](NC(=O)C(CS)Cc1ccccc1)C(=O)O)[C@@H](C)CC)C(N)=O (some centres unmarked) [Analog 78] ({X1-γGlu}-RIDRI-NH2)	
10.9 nM	97%	CC[C@H](C)[C@H](NC(=O)[C@H](CCCNC(=N)N)NC(=O)[C@H](CC(=O)O)NC(=O)[C@@H](NC(=O)[C@H](CCCNC(=N)N)NC(=O)Cc1ccc(NC(=O)C(CS)Cc2ccccc2)cc1)[C@@H](C)CC)C(N)=O (stereo partly drawn) [Analog 122, MBP-4-APA--R--I--D--R--I--NH2] (X1-[X2]RIDRI-NH2)	inhibition at 0.02 µM (Endopeptidase 24.11): 12%; inhibition at 0.1 µM (Endopeptidase 24.11): 25%; inhibition at 1 µM (Endopeptidase 24.11): 72%
66.9 nM		CC[C@H](C)[C@H](NC(=O)[C@H](CCCNC(=N)N)NC(=O)[C@H](CC(=O)O)NC(=O)[C@@H](NC(=O)[C@H](CCCNC(=N)N)NC(=O)CNC(=O)CNC(Cc1ccccc1)C(=O)O)[C@@H](C)CC)C(N)=O (some centres unmarked) [Analog 364]	
11.5 nM		CC[C@H](C)[C@H](NC(=O)[C@H](CCCNC(=N)N)NC(=O)[C@H](CC(=O)O)NC(=O)[C@@H](NC(=O)[C@H](CCCNC(=N)N)NC(=O)CNC(=O)CCNC(Cc1ccccc1)C(=O)O)[C@@H](C)CC)C(N)=O (some centres unmarked) [Analog 427] (X3-GRIDRI-NH2)	
27.3 nM		CC[C@H](C)[C@H](NC(=O)[C@H](CCCNC(=N)N)NC(=O)[C@H](CC(=O)O)NC(=O)[C@@H](NC(=O)[C@H](CCCNC(=N)N)NC(=O)CNC(=O)CNC(=O)[C@H](Cc1ccccc1)NC(Cc1ccccc1)C(=O)O)[C@@H](C)CC)C(N)=O (some centres unmarked) [Analog 436]	
6.5 nM	0%	CC[C@H](C)[C@H](NC(=O)[C@H](CCCNC(=N)N)NC(=O)[C@H](CC(=O)O)NC(=O)[C@@H](NC(=O)[C@H](CCCNC(=N)N)NC(=O)Cc1ccc(NC(=O)[C@H](Cc2ccccc2)NC(Cc2ccccc2)C(=O)O)cc1)[C@@H](C)CC)C(N)=O (stereo partly drawn) [Analog 445, F[N]F-4-APA-R-I-D-R-I-NH2]	
225 nM		CC[C@H](C)[C@H](NC(=O)[C@H](CCCNC(=N)N)NC(=O)[C@H](CC(=O)O)NC(=O)[C@@H](NC(=O)[C@H](CCCNC(=N)N)NC(=O)CNC(=O)[C@H](CC(=O)O)NC(=O)[C@H](Cc1ccccc1)NC(Cc1ccccc1)C(=O)O)[C@@H](C)CC)C(N)=O (some centres unmarked) [Analog 463]	
58.2 nM		CC[C@H](C)[C@H](NC(=O)[C@H](CCCNC(=N)N)NC(=O)[C@H](CC(=O)O)NC(=O)[C@@H](NC(=O)[C@H](CCCNC(=N)N)NC(=O)CC[C@H](NC(=O)[C@H](Cc1ccccc1)NC(CCc1ccccc1)C(=O)O)C(=O)O)[C@@H](C)CC)C(N)=O (some centres unmarked) [Analog 544]	
4.6 nM		CC[C@H](C)[C@H](NC(=O)[C@H](CCCNC(=N)N)NC(=O)[C@H](CC(=O)O)NC(=O)[C@@H](NC(=O)[C@H](CCCNC(=N)N)NC(=O)CNC(=O)CNC(Cc1ccccc1)C(=O)NO)[C@@H](C)CC)C(N)=O (some centres unmarked) [Analog 702] (H-[X4]GRIDRI-NH2)	
	97%	CC(C)C[C@H](NP(=O)(O)O[C@@H]1O[C@@H](C)[C@H](O)[C@@H](O)[C@H]1O)C(=O)N[C@@H](Cc1c[nH]c2ccccc12)C(=O)O [Phosphoramidon, phosphoramidon, reference compound]	inhibition at 0.02 µM (Endopeptidase 24.11): 0%; inhibition at 0.1 µM (Endopeptidase 24.11): 30%; inhibition at 1 µM (Endopeptidase 24.11): 80%
	92%	O=C(O)CNC(=O)C(CS)Cc1ccccc1 (centres unmarked) [Thiorphan, thiorphan, reference compound]	inhibition at 0.02 µM (Endopeptidase 24.11): 12%; inhibition at 0.1 µM (Endopeptidase 24.11): 53%; inhibition at 1 µM (Endopeptidase 24.11): 67%
		F--[N]--F--G--G--R--I--D--R--I--NH2 [Analog 436]	Ratio of Bound/Free (125I)rANP(99-126), Whole Kidney [2]: 1.31
		rANP(99-126): native 28-residue rat ANP, unlabeled competitor in the rat kidney binding assay [reference compound]	Ratio of Bound/Free (125I)rANP(99-126), Whole Kidney [2]: 0.56
